Drawing on patent publication US9776991B2, “Thienomethylpiperazine derivatives as inhibitors of soluble epoxide hydrolase” (SANOFI, priority 2013, dated 2017), this text covers IC50 for 60 compounds.

Broadly, the IC50 is the concentration that inhibits the measured activity by half.

recombinant sEH (soluble epoxide hydrolase, EPHX2), sequence (P34913 whole entry): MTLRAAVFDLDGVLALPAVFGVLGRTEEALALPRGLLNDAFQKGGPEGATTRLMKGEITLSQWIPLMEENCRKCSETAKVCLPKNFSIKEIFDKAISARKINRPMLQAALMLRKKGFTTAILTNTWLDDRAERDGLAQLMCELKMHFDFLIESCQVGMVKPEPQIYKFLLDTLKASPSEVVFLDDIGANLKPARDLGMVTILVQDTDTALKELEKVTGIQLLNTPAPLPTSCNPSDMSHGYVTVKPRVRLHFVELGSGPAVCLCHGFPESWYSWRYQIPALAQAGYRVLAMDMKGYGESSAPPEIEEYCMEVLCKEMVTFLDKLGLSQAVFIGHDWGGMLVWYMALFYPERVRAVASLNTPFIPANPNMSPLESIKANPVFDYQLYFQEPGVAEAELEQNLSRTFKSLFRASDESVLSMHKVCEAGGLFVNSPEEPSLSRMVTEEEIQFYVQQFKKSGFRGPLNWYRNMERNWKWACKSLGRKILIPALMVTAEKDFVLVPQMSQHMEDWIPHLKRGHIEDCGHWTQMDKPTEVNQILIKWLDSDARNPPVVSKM

This test concerns the target recombinant sEH (soluble epoxide hydrolase, EPHX2) (Homo sapiens (Human), UniProt P34913). Kind of test: biochemical fluorometric sEH inhibition assay with Phome substrate. The following applies: recombinant sEH purified from Sf9 insect cells, 2 nM sEH, 5 μM Phome, 60 minutes at 30° C. The procedure: Compounds were tested in a biochemical screening assay using recombinant sEH purified from Sf9 insect cells and an artificial substrate, (3-phenyl-oxiranyl)-acetic acid cyano-(6-methoxy-naphtalen-2-yl)-methyl ester, Phome. The biochemical assay was performed in analogy to a fluorometric described in the literature (P. D. Jones et al., Anal. Biochem. 2005, 343, 66-75). The assay principle bases on the sEH-catalyzed hydrolysis of an artificial α-cyano-ester substrate. O-deacetylation liberates a cyanohydrin intermediate that rapidly decomposes to the highly fluorescent 6-methoxy-2-naphtaldehyde. To discriminate sample autofluorescence, the assay was carried out as a kinetic measurement with two time points. The first measurement is performed immediately before addition of the substrate and the […] measurement is done after completion of the assay. The assay format is either in 96- or in 384-well format.
Details of the assay using a 96-well plate format are described below. 40 μl recombinant sEH enzyme and 5 μl test compound are pre-incubated for 15 minutes at 30° C. Following pre-incubation, the reaction is started by addition of 5 μl Phome. The assay mixture containing 2 nM final sEH concentration, test compound ranging in a concentration from 0.0001-10 μM and 5 μM Phome is incubated for 60 minutes at 30° C.
Fluorescence is measured with any suitable detector for instance a TECAN Safire or Tecan Ultra at […]. % inhibition of recombinant sEH activity is used for calculation of corresponding IC50 values as illustrated and described in the examples.
The NCBI gene bank reference sequence with the accession number NM_001979 for EPHX2/sEH was applied for recombinant protein production:
The following commercially available materials have been used: • Incubation reagent: 25 mM Hepes (Sigma-Aldrich, Cat. No H-3375), 0.01% bovine albumin (Sigma-Aldrich Cat. No PA9205) • Substrate: 3-Phenyl-oxiranyl)-acetic acid cyano-(6-methoxy-naphtalen-2-yl)-methyl ester, Phome (Biozol Cat. No 10003134) • Microtiter plates: 96-well plates (Greiner Cat. No 655180; Costar Cat. No 3915)
`COc1cccnc1C(=O)N1CCN(Cc2ncc(C(=O)NCc3ccc(Cl)cc3Cl)s2)CC1` [Example 196]: the IC50 came to 36.4 nM.

With `Cc1cc(C(=O)NCCC(C)(C)C)sc1CN1CCN(C(=O)c2c(C)cc(=O)oc2C)CC1` [Example 28], the IC50 turned out to be 0.803 nM.

Consider `O=C(NCc1ccc(Cl)cc1Cl)c1cnc(CN2CCN(C(=O)C3(O)CC3)CC2)s1` [Example 201], for which the IC50 came to 6.37 nM.

In the case of `CN(C)CCC(=O)N1CCN(Cc2ncc(C(=O)NCc3ccc(Cl)cc3Cl)s2)CC1` [Example 199], the IC50 was determined as 208 nM.

With `COC(C)(C)C(=O)N1CCN(Cc2ncc(C(=O)NCc3ccc(Cl)cc3Cl)s2)CC1` [Example 207], the half-maximal inhibitory concentration (IC50) was determined as 6.31 nM.

As for `O=C(NCc1ccccc1C(F)(F)F)c1ccc(CN2CCN(C(=O)c3ccccc3F)CC2)s1` [Example 119], the IC50 was found to be 1.68 nM.

For `COc1ccc(CNC(=O)c2ccc(CN3CCN(CC(F)(F)F)C(=O)C3)s2)c(OC(F)(F)F)c1` [Example 56], the IC50 is 1.01 nM.

For the compound `CN[C@H](C(=O)N1CCN(Cc2ccc(C(=O)NCc3ccccc3OC(F)(F)F)s2)CC1)[C@@H](C)O` [Example 41], the IC50 is 2.75 nM.

Take `CC(C(=O)N1CCN(Cc2ccc(C(=O)NCc3ccccc3OC(F)(F)F)s2)CC1)N(C)C` (stereo not drawn) [Example 138]: the IC50 is 6.27 nM.

On to `O=C(NCc1ccc(Cl)cc1Cl)c1ccc(CN2CCN3C(=O)CCC3C2)s1` (stereo not drawn) [Example 114], for which the IC50 stood at 1.67 nM.

On to `Cc1cc(=O)oc(C)c1C(=O)N1CCN(Cc2ccc(C(=O)NCCC(C)(C)C)s2)CC1` [Example 10], for which the IC50 came out at 2.94 nM.

With `CC1(C)OC(=O)CC1C(=O)N1CCN(Cc2ncc(C(=O)NCc3ccc(Cl)cc3Cl)s2)CC1` (stereo not drawn) [Example 161], the IC50 came out at 6.11 nM.

On to `Cc1cnc(C)c(N2CCN(Cc3ccc(C(=O)NCc4ccccc4OC(F)(F)F)s3)CC2)n1` [Example 26], for which the IC50 was 2.75 nM.

For the compound `CNC(=O)c1cccnc1N1CCN(Cc2ccc(C(=O)NCc3ccc(Cl)cc3Cl)s2)CC1` [Example 14], the IC50 amounted to 2.93 nM.

As for `COc1cccnc1C(=O)N1CCN(Cc2ccc(C(=O)NCc3ccccc3OC(F)(F)F)s2)CC1` [Example 97], the IC50 amounted to 1.6 nM.

For the compound `O=C(NCc1ccc(Cl)cc1Cl)c1ccc(CN2CCN(C(=O)[C@@H]3C[C@H]3c3ccccc3)CC2)s1` [Example 153], the IC50 is 2.56 nM.

Regarding `COCCCC(=O)N1CCN(Cc2ncc(C(=O)NCc3ccc(Cl)cc3Cl)s2)CC1` [Example 166], the IC50 was determined as 21.3 nM.

In the case of `NC1(C(=O)N2CCN(Cc3ccc(C(=O)NCc4ccc(Cl)cc4Cl)s3)CC2)CC1` [Example 109], the IC50 turned out to be 2.16 nM.

Consider `O=C(NCc1ccccc1C(F)(F)F)c1ccc(CN2CCN(C(=O)c3nccc4ccccc34)CC2)s1` [Example 45], for which the IC50 was found to be 2.67 nM.

For the compound `Cc1ccc(O)c(C(=O)N2CCN(Cc3ccc(C(=O)NCc4ccccc4OC(F)(F)F)s3)CC2)n1` [Example 79], the IC50 was found to be 2.54 nM.

For the compound `O=C(NCc1ccc(Cl)cc1Cl)c1ccc(CN2CCN(C(=O)C3Cc4ccccc43)CC2)s1` (stereo not drawn) [Example 70], the IC50 is 2.62 nM.

Regarding `CC[C@H](O)C(=O)N1CCN(Cc2ncc(C(=O)NCc3ccc(Cl)cc3Cl)s2)CC1` [Example 191], the IC50 is 14 nM.

Consider `Cc1noc(C)c1CC(=O)N1CCN(Cc2ncc(C(=O)NCc3ccc(Cl)cc3Cl)s2)CC1` [Example 165], for which the IC50 came out at 9.61 nM.

In the case of `O=C(NCc1ccc(Cl)cc1Cl)c1ccc(CN2CCN(C(=O)COc3ccccc3)CC2)s1` [Example 42], the IC50 is 2.7 nM.

On to `O=C(NCc1ccccc1C(F)(F)F)c1ccc(CN2CCN(C(=O)[C@@H]3C[C@H]3c3ccccc3)CC2)s1` [Example 76], for which the IC50 was 2.53 nM.

Regarding `COCCOCC(=O)N1CCN(Cc2ccc(C(=O)NCc3ccccc3OC(F)(F)F)s2)CC1` [Example 83], the IC50 turned out to be 2.37 nM.

On to `CC(C(=O)N1CCN(Cc2ncc(C(=O)NCc3ccc(Cl)cc3Cl)s2)CC1)N(C)C` (stereo not drawn) [Example 177, 2-[4-(2-Dimethylamino-propionyl)-piperazin-1-ylmethyl]-thiazole-5-carboxylic acid 2,4-dichloro-benzylamide], for which the IC50 worked out at 91.1 nM.

With `Cc1cc(=O)oc(C)c1C(=O)N1CCN(Cc2ccc(C(=O)NCc3ccccc3OC(F)(F)F)s2)CC1` [Example 35], the IC50 is 0.916 nM.

`O=C(NCc1ccccc1OC(F)(F)F)c1ccc(CN2CCN(C3CCCC3)C(=O)C2)s1` [Example 38]: the IC50 is 0.803 nM.

`O=C(NCc1ccccc1OC(F)(F)F)c1ccc(CN2CCN(c3nncs3)CC2)s1` [Example 142]: the IC50 worked out at 1.82 nM.

With `CC1(C)C(=O)NCCN1Cc1ccc(C(=O)NCc2ccccc2OC(F)(F)F)s1` [Example 62], the IC50 turned out to be 1.14 nM.

On to `Cc1ccc(C(=O)N2CCN(Cc3ccc(C(=O)NCc4ccc(Cl)cc4Cl)s3)CC2)s1` [Example 154], for which the IC50 was determined as 2.05 nM.

Turning to `CCOc1ccccc1C(=O)N1CCN(Cc2ccc(C(=O)NCCC(C)C)s2)CC1` [Example 118], the IC50 came to 1.72 nM.

For `Cc1n[nH]c(C)c1C(=O)N1CCN(Cc2ncc(C(=O)NCc3ccc(Cl)cc3Cl)s2)CC1` [Example 206], the IC50 is 5.24 nM.

`O=C(NCc1ccccc1OC(F)(F)F)c1ccc(CN2CCN(C(=O)c3nc(F)ccc3F)CC2)s1` [Example 129]: the half-inhibitory concentration (IC50) was found to be 1.73 nM.

As for `O=C(NCc1ccc(Cl)cc1Cl)c1cnc(CN2CCN(C(=O)C3COCCO3)CC2)s1` (stereo not drawn) [Example 170], the IC50 worked out at 18 nM.

Take `CN1CCC(C(=O)N2CCN(Cc3ncc(C(=O)NCc4ccc(Cl)cc4Cl)s3)CC2)CC1` [Example 190]: the IC50 was > 1000 nM.

As for `O=C1CCC(C(=O)N2CCN(Cc3ccc(C(=O)NCc4ccccc4OC(F)(F)F)s3)CC2)N1` (stereo not drawn) [Example 102], the IC50 amounted to 2.33 nM.

Take `O=C(NCc1ccc(Cl)cc1Cl)c1ccc(CN2CCN(C3CCCC3)C(=O)C2)s1` [Example 84]: the IC50 turned out to be 2.35 nM.

As for `COc1ccc(CNC(=O)c2ccc(CN3CCN(C(=O)C(C)O)CC3)s2)c(OC(F)(F)F)c1` (stereo not drawn) [Example 32], the IC50 was 0.756 nM.

For the compound `Cc1cncc(N2CCN(Cc3ccc(C(=O)NCc4ccccc4OC(F)(F)F)s3)CC2)n1` [Example 39], the IC50 worked out at 2.75 nM.

Take `Cc1noc(C)c1C(=O)N1CCN(Cc2ncc(C(=O)NCc3ccc(Cl)cc3Cl)s2)CC1` [Example 160]: the concentration for half-maximal inhibition (IC50) was 1.41 nM.

For `O=C(NCc1ccccc1C(F)(F)F)c1ccc(CN2CCN(C(=O)c3cscc3Br)CC2)s1` [Example 18], the IC50 worked out at 0.678 nM.

Turning to `O=C(NCc1ccccc1OC(F)(F)F)c1ccc(CN2CCN(C(=O)c3ccc[nH]c3=O)CC2)s1` [Example 66], the IC50 is 1.25 nM.

Take `COCCC(=O)N1CCN(Cc2ccc(C(=O)NCc3ccccc3OC(F)(F)F)s2)CC1` [Example 116]: the half-maximal inhibitory concentration (IC50) amounted to 1.6 nM.

Take `COc1ccc(CNC(=O)c2ccc(CN3CCN(c4nccn4C)CC3)s2)c(OC(F)(F)F)c1` [Example 113]: the IC50 turned out to be 1.67 nM.

Consider `O=C1NCC(C(=O)N2CCN(Cc3ncc(C(=O)NCc4ccc(Cl)cc4Cl)s3)CC2)N1` (stereo not drawn) [Example 203], for which the IC50 was 36.3 nM.

For the compound `O=C(NCc1ccccc1OC(F)(F)F)c1ccc(CN2CCN(C(=O)c3ncccc3O)CC2)s1` [Example 82], the IC50 is 2.37 nM.

As to `O=C(NCc1ccccc1OC(F)(F)F)c1ccc(CN2CCN(c3cnccn3)CC2)s1` [Example 73], the IC50 turned out to be 2.59 nM.

As for `O=C(NCc1ccc(Cl)cc1Cl)c1ccc(CN2CCN(C(=O)Cc3ccccc3Cl)CC2)s1` [Example 69], the IC50 was 2.61 nM.

As to `CC(C)(O)C(=O)N1CCN(Cc2ncc(C(=O)NCc3ccc(Cl)cc3Cl)s2)CC1` [Example 172], the IC50 amounted to 10.8 nM.

Take `CC(O)C(=O)N1CCN(Cc2ncc(C(=O)NCc3ccc(Cl)cc3Cl)s2)CC1` (stereo not drawn) [Example 189]: the IC50 worked out at 28.9 nM.

In the case of `CO[C@H](C)C(=O)N1CCN(Cc2ccc(C(=O)NCc3ccccc3OC(F)(F)F)s2)CC1` [Example 93], the IC50 was determined as 1.31 nM.

`Cc1cc(C(=O)NCc2cccc3c2OCCO3)sc1CN1CCN(C(=O)c2c(C)cc(=O)oc2C)CC1` [Example 29]: the IC50 is 0.803 nM.

As to `Cn1cccc1C(=O)N1CCN(Cc2ccc(C(=O)NCc3ccccc3C(F)(F)F)s2)CC1` [Example 51], the IC50 came out at 0.994 nM.

`O=C(NCc1ccc(Cl)cc1Cl)c1cnc(CN2CCN(C(=O)CCO)CC2)s1` [Example 163]: the 50% inhibitory concentration (IC50) was found to be 25.2 nM.

Regarding `CCC(C)(O)C(=O)N1CCN(Cc2ccc(C(=O)NCc3ccccc3OC(F)(F)F)s2)CC1` (stereo not drawn) [Example 95], the IC50 was found to be 1.51 nM.

Turning to `COc1ccc(CNC(=O)c2ccc(CN3CCN(c4ncccc4C)C(=O)C3)s2)c(OC(F)(F)F)c1` [Example 126], the IC50 was found to be 1.75 nM.

Take `Cc1noc(C)c1C(=O)N1CCN(Cc2ccc(C(=O)NCc3ccc(Cl)cc3Cl)s2)CC1` [Example 2]: the IC50 worked out at 0.502 nM.

In the case of `CNC(=O)c1cccnc1N1CCN(Cc2ccc(C(=O)NCc3ccccc3OC(F)(F)F)s2)CC1` [Example 135], the IC50 turned out to be 2.14 nM.
